Assay [1] deals with retinal ganglion cells. Type of assay: cell-based, rat.
Assay [2] has as its system rat neocortical tissue slices. As to conditions: Evans et al. 1982; Kral et al. 1993; cited from earlier work.
Assay [3] concerns retinal ganglion cells. Conditions: literature; cited from earlier work.
For a further assay, the system named is NMDA receptor. Conditions: whole cell recordings; Chen et al. 1998; cited from earlier work.
Assay [4] deals with isolated retinas of chick embryos. Conditions: LDH release and histological assessment; Chen et al. 1998; cited from earlier work. Background: LDH leaks from cells whose membrane has failed.
The test system of a further assay is cortical neuronal cells. Conditions: cited from earlier work.
Assay [5] has as its system retinal ganglion cells. As to conditions: Lagreze et al. 1998, cited from earlier work.
[6] abbreviates: co-exposure to 1.0 mM, about 24 hours, Yamamoto and Tang 1998.

“Also recorded” adds a separate entry of the source. Where two headings read alike, the source gives them in different places.

For the compound `NC(CCCP(=O)(O)O)C(=O)O` (racemic) [AP-5, DL-2-amino-5-phosphonovaleric acid], in the assay on retinal ganglion cells [1], the “protection of oxygen/glucose-deprived RGCs from apoptotic cell death (in words)” value is given as “demonstrated biological activity in protecting oxygen/glucose-deprived RGCs from apoptotic cell death”. Further, in assay [2], the “protective effect in neocortical tissue slices” value was “protective effect”.
In the case of `NC(CCCCCP(=O)(O)O)C(=O)O` (stereo not drawn), the “prevention of NMDA receptor-mediated death of retinal ganglion cells in vivo” value (“prevention … in vivo” below) in the assay with retinal ganglion cells [3] is given as “prevent NMDA receptor-mediated death of retinal ganglion cells in vivo”.
Consider `Cc1cccc(Nc2ccccc2C(=O)O)c1C` [mefenamic acid], for which the “NMDA receptor mediated currents” value in the assay with NMDA receptor is given as “inhibited NMDA receptor mediated currents”. Also, the “protective effect on neurons under ischemic or excitotoxic conditions” value (“protective effect on neurons” below) in assay [4] is “protective effect”. Also, in the assay with retinal ganglion cells [1], the “protection of oxygen/glucose-deprived RGCs from apoptotic cell death (in words)” value is “to a lesser extent; also recorded: Less efficacy”.
As to `O=C(O)c1cc(=O)c2ccccc2[nH]1` [kynurenic acid], the “prevention … in vivo” value with retinal ganglion cells [3] is listed as “prevent NMDA receptor-mediated death of retinal ganglion cells in vivo”.
As to `Cc1ccc(Cl)c(Nc2ccccc2C(=O)O)c1Cl` [meclofenamic acid], in the assay with NMDA receptor, the “NMDA receptor mediated currents” value is recorded as “inhibited NMDA receptor mediated currents”. Further, the “protective effect on neurons” value in assay [4] is on record as “protective effect”. Moreover, in the assay on retinal ganglion cells [1], the “protection of oxygen/glucose-deprived RGCs from apoptotic cell death (in words)” value is recorded as “to a lesser extent; also recorded: Less efficacy”.
As for `O=C(O)c1ccccc1Nc1cccc(C(F)(F)F)c1` [flufenamic acid], in the assay on NMDA receptor, the “NMDA receptor mediated currents” value is reported as “inhibited NMDA receptor mediated currents”. In addition, the “protective effect on neurons” value in assay [4] is recorded as “protective effect”. Moreover, the “protection of oxygen/glucose-deprived RGCs from apoptotic cell death (in words)” value with retinal ganglion cells [1] is “demonstrated biological activity in protecting oxygen/glucose-deprived RGCs from apoptotic cell death”.
For `NC(CCCCCP(=O)(O)O)C(=O)O` (racemic) [AP-7], the “protection of oxygen/glucose-deprived RGCs from apoptotic cell death (in words)” value with retinal ganglion cells [1] is on record as “demonstrated biological activity in protecting oxygen/glucose-deprived RGCs from apoptotic cell death”. Moreover, in the assay with cortical neuronal cells, the “increase of extracellular LDH and neuronal disintegration by potassium cyanide and NMDA” value (from here on “increase … by potassium cyanide and NMDA”) is on record as “partially prevented”.
Regarding `COc1ccc2[nH]cc(CCNC(C)=O)c2c1` [melatonin], the “increase … by potassium cyanide and NMDA” value in the assay on cortical neuronal cells (setting [6]) is recorded as “partially prevented”.
On to `CC12CC3CC(C)(C1)CC(N)(C3)C2` [memantine], for which, in the assay with retinal ganglion cells [3], the “prevention … in vivo” value is “prevent NMDA receptor-mediated death of retinal ganglion cells in vivo”. Besides, the “prevention of NMDA receptor-mediated death of retinal ganglion cells (in words)” value in the assay on retinal ganglion cells [5] was “prevent NMDA receptor-mediated death of retinal ganglion cells”. Also, the entries for the “increase in the number of surviving retinal ganglion cells” value in the assay with retinal ganglion cells [5] (administered before retinal ischemia) and in the assay with retinal ganglion cells [5] (administered within 30 minutes of retinal ischemia) were approximately 30% and approximately 20%, respectively.
For the compound `N=C(NCCC[C@H](N)C(=O)O)N[N+](=O)[O-]` [N^G-nitro-L-arginine], the “increase … by potassium cyanide and NMDA” value with cortical neuronal cells (setting [6]) was “partially prevented”.

These data come from patent US6379882B1, “Method for selecting compounds for treating ischemia-related cellular damage” (Elan Pharmaceuticals, Inc., priority 1998, dated 2002).
